Patent US8426408B2, “Pyrimidine inhibitors of kinases” (AbbVie Inc., priority 2009, dated 2013)

Key:
KDR [1] = target: T1, KDR (Homo sapiens, UniProt P35968); assay: KDR HTRF in vitro kinase assay; type: biochemical; parameters: purified enzyme (His6-KDR 789-1354, MW 63 kD); His6 (N); settings: 1 mM ATP; read-out: KDR enzyme inhibition data (Ki)
Method in brief: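 His6-KDR 789-1354 (7 ng/well) with 0.5 μM biotinylated peptide substrate and 1 mM ATP in HEPES pH 7.1, MgCl2/MnCl2, 60 min at room temperature. EDTA-quenched, detected by streptavidin-XL-665 plus Eu-kryptate anti-phosphotyrosine HTRF after 3 h; IC50 from 620/665 nm ratio.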
Target sequence in this assay (P35968 789-1354): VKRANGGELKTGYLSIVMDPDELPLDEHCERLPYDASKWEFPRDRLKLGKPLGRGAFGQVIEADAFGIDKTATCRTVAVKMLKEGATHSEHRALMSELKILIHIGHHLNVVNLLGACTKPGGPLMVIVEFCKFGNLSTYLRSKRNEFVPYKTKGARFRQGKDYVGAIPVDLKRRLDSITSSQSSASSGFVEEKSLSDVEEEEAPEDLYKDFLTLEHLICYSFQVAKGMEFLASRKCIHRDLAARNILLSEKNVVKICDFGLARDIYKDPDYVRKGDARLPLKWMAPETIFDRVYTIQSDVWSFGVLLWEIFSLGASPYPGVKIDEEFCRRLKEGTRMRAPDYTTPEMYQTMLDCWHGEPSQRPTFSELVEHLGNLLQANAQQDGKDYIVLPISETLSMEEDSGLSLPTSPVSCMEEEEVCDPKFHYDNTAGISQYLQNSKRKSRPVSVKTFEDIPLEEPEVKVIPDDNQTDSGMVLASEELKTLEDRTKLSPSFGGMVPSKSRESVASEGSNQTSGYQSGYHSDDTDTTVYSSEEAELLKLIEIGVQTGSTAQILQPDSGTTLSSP

KDR [2] = target: T1, KDR; assay: KDR cellular assay (KDR receptor phosphorylation ELISA); type: cell-based; parameters: expressed in transfected cells; host or cells: 3T3 (embryonic mouse) cells; settings: KDR transfected 3T3 (embryonic mouse) cells, VEGF stimulated; read-out: IC50 inhibition of KDR phosphorylation
Description: The ability of compounds to inhibit KDR receptor phosphorylation in cells was measured by ELISA following the protocol outlined below.
KDR transfected 3T3 (embryonic mouse) cells added to 96-well tissue culture plates at 20,000 cells/well.
Plates were covered and placed in a 37° C. humidified incubator with 5% CO2 overnight, to allow cells to adhere.
Coating solution was prepared: 500 l/vial PBS was added to 2 vials of anti-KDR antibody, then 1 ml solubilized anti-KDR antibody into 29.0 ml bicarbonate buffer. Coating solution was added to all wells at 150 µl/well (final amount anti-KDR=1 µg/well) and placed at 4° C. overnight.
Blocking solution (2.1 g dry milk+42 ml PBS=5% milk in PBS) was placed on a stir plate for 30 min.
Assay plates were washed twice with PBST, and 200 µl/well blocking solution was added to all wells. Assay plates were covered with plate sealers and placed in a 37° C. microplate chamber until just before cell lysate transfer.
Compound stocks were thawed or prepared in DMSO as 5 mM stocks.
Dilution medium (DM, 1% DMSO in DMEM) and compounds were diluted by half-log increments for concentration response analysis.
Conditioned media was dumped from the tissue culture plates, and plates were blotted dry.
Standard solution in DM, compound dilutions in DM, or DM (for high control, negative control, and reference wells) were added to the tissue culture plates, 25 µl/well. Each pair of tissue culture plates was prepared with the same compounds, solutions, and layout; and will be combined later; Tissue culture plates were covered and placed in the 37° C. microplate chamber for 20 min.
VEGF solution was prepared: 110 l VEGF stock+10.89 ml DM=100 ng/ml VEGF
VEGF solution or DM (for reference wells) was added to the tissue culture plates, 25 μl/well.
Tissue culture plates were covered and placed in the 37° C. microplate chamber for 10 min.
RIPA buffer was prepared (240 l NaVO3 stock+240 l PIC stock+24 l NaF stock+23.496 ml RIPA base) and added to the tissue culture plates, 50 µl/well.
Tissue culture plates were covered and placed on a Labline plate shaker for 10 min (speed about 5).
Assay plates were washed twice with PBST.
Cell lysates from matching wells of each pair of tissue culture plates were combined to =200 µl/well, and were pipetted up and down to mix. Cell lysates were transferred to the assay plates using the same layouts, 170 µl/well.
Assay plates were covered with plate sealers and placed on a Labline plate shaker for 2 hr (speed about 5).
Assay plates were washed 5 times with PBST.
Biotin antibody solution was prepared (16 l biotin antibody stock+32 ml PBST=2000× dilution) and added to the assay plates, 150 µl/well.
Assay plates were covered with plate sealers and placed on a Labline plate shaker for 90 min
Streptavidin-HRP solution was prepared (16 l streptavidin-HRP stock+32 ml PBST=2000× dilution) and added to the assay plates, 150 µl/well.
Assay plates were covered with plate sealers and placed on a Labline plate shaker for 60 min
Substrate was added to the assay plates, 100 µl/well.
As assay plates developed, the plates were each monitored on a Molecular Devices Spectramax set to 650 nm, until the signal in the high control wells was around 0.6 OD and the signal in the negative control wells was around 0.1-0.15 OD.
Stop solution was added to the assay plates, 100 µl/well.
The plates were read on a Molecular Devices Spectramax set to 450 nm.
Data was calculated by Assay Explorer, using same-plate high control wells as 0% and reference standard wells as 100% inhibition of KDR phosphorylation. IC50 values were calculated by non-linear regression analysis of the concentration response data.
Target sequence in this assay (P35968 20-1356): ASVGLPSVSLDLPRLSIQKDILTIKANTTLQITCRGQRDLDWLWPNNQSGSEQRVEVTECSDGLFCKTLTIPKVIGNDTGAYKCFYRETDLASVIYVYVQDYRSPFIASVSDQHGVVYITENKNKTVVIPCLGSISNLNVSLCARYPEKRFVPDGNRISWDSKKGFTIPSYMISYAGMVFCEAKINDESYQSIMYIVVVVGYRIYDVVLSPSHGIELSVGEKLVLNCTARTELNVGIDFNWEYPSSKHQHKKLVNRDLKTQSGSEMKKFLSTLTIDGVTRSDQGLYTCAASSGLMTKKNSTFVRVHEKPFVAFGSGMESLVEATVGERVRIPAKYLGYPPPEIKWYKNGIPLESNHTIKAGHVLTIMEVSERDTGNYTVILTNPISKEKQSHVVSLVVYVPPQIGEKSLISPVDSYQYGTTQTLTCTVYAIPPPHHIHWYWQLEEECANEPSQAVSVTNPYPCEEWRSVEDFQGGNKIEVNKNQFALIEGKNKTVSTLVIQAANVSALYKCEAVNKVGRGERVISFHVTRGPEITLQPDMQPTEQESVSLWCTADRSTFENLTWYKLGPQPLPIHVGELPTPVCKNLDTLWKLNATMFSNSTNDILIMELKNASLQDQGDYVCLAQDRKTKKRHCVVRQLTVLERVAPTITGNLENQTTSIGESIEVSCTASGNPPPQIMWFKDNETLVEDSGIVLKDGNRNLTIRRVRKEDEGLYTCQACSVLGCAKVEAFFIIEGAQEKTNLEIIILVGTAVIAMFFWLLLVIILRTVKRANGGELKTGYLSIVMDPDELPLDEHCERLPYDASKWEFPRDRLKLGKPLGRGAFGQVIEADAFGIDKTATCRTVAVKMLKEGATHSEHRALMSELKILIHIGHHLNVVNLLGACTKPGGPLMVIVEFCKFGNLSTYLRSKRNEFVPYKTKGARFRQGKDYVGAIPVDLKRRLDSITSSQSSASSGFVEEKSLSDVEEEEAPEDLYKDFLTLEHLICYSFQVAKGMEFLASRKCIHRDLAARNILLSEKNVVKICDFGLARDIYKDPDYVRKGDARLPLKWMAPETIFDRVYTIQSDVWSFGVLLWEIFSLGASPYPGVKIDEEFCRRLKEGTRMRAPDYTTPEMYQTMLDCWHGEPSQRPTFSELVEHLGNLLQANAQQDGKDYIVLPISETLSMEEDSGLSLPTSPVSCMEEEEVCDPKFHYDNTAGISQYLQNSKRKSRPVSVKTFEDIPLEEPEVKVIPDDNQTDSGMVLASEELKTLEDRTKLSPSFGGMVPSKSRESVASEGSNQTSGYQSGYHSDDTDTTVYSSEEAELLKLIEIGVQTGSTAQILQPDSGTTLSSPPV

Aurora B = target: T2, Aurora B (Homo sapiens, UniProt Q96GD4); assay: Aurora B enzyme inhibition (time-resolved fluorescence, histone H3 peptide); type: biochemical; settings: 1 mM ATP
T2 construct: Active Aurora B enzyme (recombinant residues 1-344)
Method in brief: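 IC50s came from an exponential fit of inhibition against inhibitor concentration, with phosphorylation read as the 665/615 nm time-resolved fluorescence ratio after EDTA stop using Eu-anti-phospho-H3 and SA-APC. The 1 h reaction used Aurora B 1-344 plus GST-INCENP, biotin-histone H3 1-21 peptide and 1 mM ATP in pH 7.4 HEPES buffer.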

Aurora A = target: T3, Aurora A (Homo sapiens, UniProt O14965); assay: Aurora A enzyme inhibition (time-resolved fluorescence, STK substrate-2); type: biochemical; settings: 1 mM ATP
T3 sequence (O14965 1-403): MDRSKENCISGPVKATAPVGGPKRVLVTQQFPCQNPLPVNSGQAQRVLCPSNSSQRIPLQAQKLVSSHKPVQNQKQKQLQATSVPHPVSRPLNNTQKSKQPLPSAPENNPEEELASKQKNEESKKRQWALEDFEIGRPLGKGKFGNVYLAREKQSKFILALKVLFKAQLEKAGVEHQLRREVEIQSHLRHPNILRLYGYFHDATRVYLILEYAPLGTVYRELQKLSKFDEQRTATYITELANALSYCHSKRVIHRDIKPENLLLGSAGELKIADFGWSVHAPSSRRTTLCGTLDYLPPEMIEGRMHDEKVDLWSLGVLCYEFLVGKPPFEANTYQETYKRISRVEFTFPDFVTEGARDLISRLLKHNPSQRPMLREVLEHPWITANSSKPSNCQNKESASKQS
Method in brief: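 Phosphorylation of biotinylated STK substrate-2 at 1 mM ATP, 1 h, Hepes buffer pH 7.4 (MgCl2, sodium orthovanadate, Triton X-100). After EDTA quench, 665/615 nm time-resolved fluorescence ratio read via europium anti-phospho antibody and SA-XL665; IC50 from exponential fit versus inhibitor concentration.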

T2 sequence (Q96GD4 whole entry, the tested form may be a part): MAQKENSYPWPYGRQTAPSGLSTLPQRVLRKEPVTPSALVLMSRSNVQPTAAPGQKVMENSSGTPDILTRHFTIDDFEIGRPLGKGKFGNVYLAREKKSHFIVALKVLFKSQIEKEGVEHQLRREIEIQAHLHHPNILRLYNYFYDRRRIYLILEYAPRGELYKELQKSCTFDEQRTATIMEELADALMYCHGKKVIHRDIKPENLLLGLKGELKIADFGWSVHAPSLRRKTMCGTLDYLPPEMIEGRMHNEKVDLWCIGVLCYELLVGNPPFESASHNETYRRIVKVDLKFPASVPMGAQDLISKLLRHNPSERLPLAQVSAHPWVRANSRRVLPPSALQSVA
T2 sequence (Q9NQS7 826-918 partner limits assumed): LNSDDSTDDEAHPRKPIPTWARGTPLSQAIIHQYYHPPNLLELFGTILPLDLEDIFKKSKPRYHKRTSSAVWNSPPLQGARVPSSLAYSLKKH

Row | Compound | Ki (KDR [1]) [nM] | IC50 (KDR [2]) [nM] | Ki (Aurora B) [nM] | Ki (Aurora A) [nM]
1 | OCCn1cc(Nc2ncc(Cl)c(Nc3ccc4[nH]ncc4c3)n2)cn1 [Example 180, 2-(4-{[5-chloro-4-(1H-indazol-5-ylamino)pyrimidin-2-yl]amino}-1H-pyrazol-1-yl)ethanol] | < 100 | 100 to 1000 | < 100 | < 100
2 | NC(=O)[C@@H]1[C@H](Nc2nc(Nc3cnn(CC(F)(F)F)c3)ncc2C(F)(F)F)[C@H]2C=C[C@@H]1C2 (racemic) [Example 32, (1S,2S,3R,4R)-3-{[2-{[1-(2,2,2-trifluoroethyl)-1H-pyrazol-4-yl]amino}-5-(trifluoromethyl)pyrimidin-4-yl]amino}bicyclo[2.2.1]hept-5-ene-2-carboxamide and (1R,2R,3S,4S)-3-{[2-{[1-(2,2,2-trifluoroethyl)-1H-pyrazol-4-yl]amino}-5-(trifluoromethyl)pyrimidin-4-yl]amino}bicyclo[2.2.1]hept-5-ene-2-carboxamide] | < 100 | < 100 | < 100 | < 100
3 | Cc1c(Nc2ncc(Cl)c(N[C@H]3[C@@H](C(N)=O)C[C@H]4C[C@@H]3C4(C)C)n2)cnn1C [Example 184, (1R,2R,3S,5R)-2-({5-chloro-2-[(1,5-dimethyl-1H-pyrazol-4-yl)amino]pyrimidin-4-yl}amino)-6,6-dimethylbicyclo[3.1.1]heptane-3-carboxamide] | < 100 | 100 to 1000 | < 100 | < 100
4 | CC(C)NC(=O)[C@@H]1CCC[C@@H]1Nc1nc(Nc2cnn(C)c2)ncc1Cl.CC(C)NC(=O)[C@H]1CCC[C@H]1Nc1nc(Nc2cnn(C)c2)ncc1Cl (mixture of isomers) [Example 156, (1S,2R)-2-({5-chloro-2-[(1-methyl-1H-pyrazol-4-yl)amino]pyrimidin-4-yl}amino)-N-isopropylcyclopentanecarboxamide and (1R,2S)-2-({5-chloro-2-[(1-methyl-1H-pyrazol-4-yl)amino]pyrimidin-4-yl}amino)-N-isopropylcyclopentanecarboxamide] | 100 to 1000 | 100 to 1000 | < 100 | < 100
5 | CC1(C)[C@H]2C[C@H](C(N)=O)[C@H](Nc3nc(Nc4cnn(-c5ccccc5)c4)ncc3Cl)[C@@H]1C2 [Example 189, (1R,2R,3S,5R)-2-({5-chloro-2-[(1-phenyl-1H-pyrazol-4-yl)amino]pyrimidin-4-yl}amino)-6,6-dimethylbicyclo[3.1.1]heptane-3-carboxamide] | < 100 | 100 to 1000 | < 100 | < 100
6 | CN1CCN(CCn2cc(Nc3ncc(Cl)c(N[C@H]4[C@@H](C(N)=O)C[C@H]5C[C@@H]4C5(C)C)n3)cn2)CC1 [Example 190, (1R,2R,3S,5R)-2-{[5-chloro-2-({1-[2-(4-methylpiperazin-1-yl)ethyl]-1H-pyrazol-4-yl}amino)pyrimidin-4-yl]amino}-6,6-dimethylbicyclo[3.1.1]heptane-3-carboxamide] | 100 to 1000 | 100 to 1000 | < 100 | 100 to 1000
7 | Cn1cc(Nc2ncc(Cl)c(Nc3ccccc3C3(O)CCOCC3)n2)cn1 [Example 133, 4-[2-({5-chloro-2-[(1-methyl-1H-pyrazol-4-yl)amino]pyrimidin-4-yl}amino)phenyl]tetrahydro-2H-pyran-4-ol] | 100 to 1000 | 100 to 1000 | < 100 | < 100
8 | CC(C)NC(=O)[C@H]1CCC[C@H]1Nc1nc(Nc2cnn(CCN3CCOCC3)c2)ncc1Cl [Example 164, (1S,2R)-2-{[5-chloro-2-({1-[2-(morpholin-4-yl)ethyl]-1H-pyrazol-4-yl}amino)pyrimidin-4-yl]amino}-N-isopropylcyclopentanecarboxamide] | 100 to 1000 | 100 to 1000 | < 100 | < 100
9 | CCn1cc(Nc2ncc(C(N)=O)c(NC3C4C=CC(C4)C3C(N)=O)n2)cn1 (mixture of isomers) [Example 87, 4-{[(1S,2S,3R,4R)-3-carbamoylbicyclo[2.2.1]hept-5-ene-2-yl]amino}-2-[(1-ethyl-1H-pyrazol-4-yl)amino]pyrimidine-5-carboxamide and 4-{[(1R,2R,3S,4S)-3-carbamoylbicyclo[2.2.1]hept-5-ene-2-yl]amino}-2-[(1-ethyl-1H-pyrazol-4-yl)amino]pyrimidine-5-carboxamide] | < 100 | 100 to 1000 | < 100 | < 100
10 | Cc1nn(C)c(C)c1Nc1ncc(Cl)c(N[C@H]2[C@@H](C(N)=O)[C@@H]3C=C[C@H]2C3)n1 [Example 127, (1S,2S,3R,4R)-3-({5-chloro-2-[(1,3,5-trimethyl-1H-pyrazol-4-yl)amino]pyrimidin-4-yl}amino)bicyclo[2.2.1]hept-5-ene-2-carboxamide] | 100 to 1000 | 100 to 1000 | 100 to 1000 | 100 to 1000
11 | (1S,2S,3R,4R)-3-[(5-bromo-2-{[1-(3-fluoro-4-methoxybenzyl)-1H-pyrazol-4-yl]amino}pyrimidin-4-yl)amino]bicyclo[2.2.1]hept-5-ene-2-carboxamide [Example 193] | < 100 | < 100 | < 100 | < 100
12 | CCn1cc(Nc2ncc(Cl)c(Nc3ccc4[nH]ncc4c3)n2)cn1 [Example 176, 5-chloro-N^2-(1-ethyl-1H-pyrazol-4-yl)-N^4-(1H-indazol-5-yl)pyrimidine-2,4-diamine] | – | 100 to 1000 | – | –
13 | Cn1cc(Nc2ncc(Cl)c(N[C@@H]3CCCC[C@@H]3C(N)=O)n2)cn1.Cn1cc(Nc2ncc(Cl)c(N[C@H]3CCCC[C@H]3C(N)=O)n2)cn1 (mixture of isomers) [Example 147, (1S,2R)-2-({5-chloro-2-[(1-methyl-1H-pyrazol-4-yl)amino]pyrimidin-4-yl}amino)cyclohexanecarboxamide and (1R,2S)-2-({5-chloro-2-[(1-methyl-1H-pyrazol-4-yl)amino]pyrimidin-4-yl}amino)cyclohexanecarboxamide] | < 100 | 100 to 1000 | < 100 | < 100
